In PubChem BioAssay (NCI):
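Dose response: 5 concentrations. Exposure: 48 h. Format: 96-well plates. Endpoint: linear interpolation; highest concentration if not reached. GI50: concentration for 50% inhibition of growth. At the TGI there is no net growth.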

Legend:
Assay in all cases: DTP human tumour cell line panel, 48 h
KM12 colon = tested on: KM12 colon
TK-10 renal = tested on: TK-10 renal
SF-268 CNS = tested on: SF-268 CNS
IGROV1 ovarian = tested on: IGROV1 ovarian
SK-OV-3 ovarian = tested on: SK-OV-3 ovarian
RPMI-8226 leukemia = tested on: RPMI-8226 leukemia
NCI-H23 lung = tested on: NCI-H23 lung
NCI-H460 lung = tested on: NCI-H460 lung
SK-MEL-5 melanoma = tested on: SK-MEL-5 melanoma
SNB-75 CNS = tested on: SNB-75 CNS

| SMILES | TGI (KM12 colon) | TGI (TK-10 renal) | TGI (SF-268 CNS) | TGI (IGROV1 ovarian) | TGI (SK-OV-3 ovarian) | TGI (RPMI-8226 leukemia) | TGI (NCI-H23 lung) | TGI (NCI-H460 lung) | TGI (SK-MEL-5 melanoma) | TGI (SNB-75 CNS) | GI50 (KM12 colon) | GI50 (TK-10 renal) | GI50 (SF-268 CNS) | GI50 (SK-OV-3 ovarian) | GI50 (SNB-75 CNS) |
| --- | --- | --- | --- | --- | --- | --- | --- | --- | --- | --- | --- | --- | --- | --- | --- |
| CCOC(=O)C1(C#N)C2(C#N)C(N)=NC(ON=C(C)C)(ON=C(C)C)C12C#N (stereo not drawn) | > 100 µM | > 100 µM | > 100 µM | > 100 µM | > 100 µM | > 100 µM | > 100 µM | > 100 µM | > 100 µM |  |  |  |  |  |  |
| COC(=O)c1ccccc1NC(=S)NN(C)C | > 100 µM | > 100 µM |  | > 100 µM | > 100 µM | > 100 µM | > 100 µM |  |  | > 100 µM |  |  |  |  |  |
| CCCCCCCCCC(O)CC(=O)c1c(O)cccc1O (stereo not drawn) | 40.8 µM | 45.7 µM | 35.9 µM | 36.8 µM | 41.3 µM | 45.2 µM | 43.7 µM |  | 38 µM | 34.9 µM |  |  |  |  |  |
| Nc1ncnc2c1ncn2CCCC(c1ccccc1)P(=O)(O)O (stereo not drawn) | > 100 µM | > 100 µM | > 100 µM | > 100 µM | > 100 µM |  | > 100 µM | > 100 µM | > 100 µM | > 100 µM |  |  |  |  |  |
| Cn1cc(-c2nc(-c3c[nH]c4ccncc34)cs2)c2ccccc21 | 2.35 µM | 3.46 µM | 3.43 µM |  | 3.23 µM |  |  |  |  | 2.61 µM | 1110 nM | 1970 nM | 1790 nM | 1590 nM | 1290 nM |
| COC(=O)[C@H]1[C@@H](O)[C@@]2(O)c3c(OC)cc(OC)cc3O[C@@]2(c2ccc3c(c2)OCO3)[C@@H]1c1ccccc1 | 0.113 µM |  | 2.11 µM | 0.666 µM | 1.54 µM | 0.0492 µM | 0.823 µM |  | 0.0688 µM |  |  |  |  |  |  |
| CCCCCCCCCCCCCCCCNCC(O)CN (stereo not drawn) | 3.66 µM |  | 12.9 µM | 18.9 µM | 35.9 µM | 4.52 µM | 16.8 µM | 3.56 µM | 27 µM | 11 µM |  |  |  |  |  |
| CCNC(=O)NNc1ncnc2c1c(-c1ccc(Cl)cc1)cn2-c1ccc(C)cc1 | 35 µM | 81 µM | 39 µM | 37.7 µM | 73.7 µM |  | 44.8 µM | 48.5 µM | 28 µM | 38.9 µM |  |  |  |  |  |
| N#C/C=c1/c2ccccc2n2nc3ccccc3c12 | 68.3 µM | 30.5 µM | 34 µM | 58.3 µM | 22.9 µM | > 100 µM | 59.2 µM | > 100 µM | > 100 µM |  |  |  |  |  |  |
| C=C1C(=O)[C@]23C[C@H]1C[C@@H](O)[C@H]2[C@]1(COC3=O)[C@@H](OC(C)=O)CC[C@@](C)(COC(C)=O)[C@H]1C=O | > 50 µM | > 50 µM | 43.5 µM | > 50 µM |  |  | > 50 µM | > 50 µM | > 50 µM | > 50 µM |  |  |  |  |  |
| COc1cc(N)c2[nH]c3c(C)ccc(C)c3c2c1 | > 100 µM | > 100 µM | > 100 µM |  |  | > 100 µM |  | > 100 µM | > 100 µM | > 100 µM |  |  |  |  |  |
| N#C/C(=C/n1c(=S)[nH]c2ccccc21)C(N)=O | > 100 µM |  | > 100 µM | > 100 µM | > 100 µM | > 100 µM | > 100 µM | > 100 µM | > 100 µM | > 100 µM |  |  |  |  |  |
| COC(=O)[C@@H]1[C@H](O)CCC2=C(CC(=O)c3ccoc3)[C@H](C)CC[C@]21C | > 50 µM | > 50 µM |  | > 50 µM | > 50 µM |  | > 50 µM | > 50 µM | > 50 µM | > 50 µM |  |  |  |  |  |
| CC(C)(C)c1ccc(O)c(C(c2ccc([N+](=O)[O-])cc2)c2cc(C(C)(C)C)ccc2O)c1 |  | 7.39 µM | 3.16 µM | 4.37 µM | 4.15 µM | 4.98 µM | 4.23 µM |  |  | 3.9 µM |  |  |  |  |  |
| CC(=O)Oc1c2c(c(OC(C)=O)c3c1n(C(C)=O)c1ccccc1n3C(C)=O)n(C(C)=O)c1ccccc1n2C(C)=O | 31.5 µM |  | 24.9 µM |  | 50 µM | 10.8 µM | 25.7 µM | 15.4 µM | 39 µM | 46.1 µM |  |  |  |  |  |
| C[C@]12C(=O)C=CCC1=CC[C@@H]1[C@@H]2[C@H]2CC3(O)C(=O)O[C@@]4(C)[C@H]5C[C@@]6(C)[C@@H]7[C@@]2(O)[C@]1(OC[C@H]6C(=O)O5)O[C@]734 (stereo partly drawn) | > 100 µM | > 100 µM | > 100 µM | > 100 µM |  | > 100 µM | 54.6 µM | > 100 µM | > 100 µM | > 100 µM |  |  |  |  |  |
| CC(=O)NNC(=S)/N=C\c1c(O)c2ccccc2oc1=O | > 100 µM | > 100 µM | > 100 µM | > 100 µM |  | > 100 µM | > 100 µM | > 100 µM | > 100 µM | > 100 µM |  |  |  |  |  |
